Measured values from patent US20090306012A1, “THERAPEUTIC PROTOCOLS” (priority 2001, published 2009).
Read-outs that look alike come from different tables or passages of the source.

Key:
[1] = format: in vivo; conditions: 6-week regimen
Description: The overall survival time was calculated as the time (days or weeks) that the animal lived, after the commencement of treatment.

[2] = In vivo cytotoxicity (III), CMF±HA: organ pathology (lungs, liver); design: species or system Athymic CBA/WEHI nude female mice
From the text: (§1) Immediately after killing the mouse, the tumor, liver, heart, spleen, bladder, left and right kidneys, uterus, lungs, stomach, intestines, brain and lymph nodes were excised and weighed, and placed in 10% v/v formalin. The tissue was fixed for 16-24 hrs before histological processing. Fixed tissue was dehydrated stepwise to 100% v/v ethanol and embedded in paraffin blocks from which 2-4 μm sections were placed on glass microscope slides. Staining the tissue sections with a hematoxylin nuclear stain and eosin cytoplasmic stain highlighted any pathological features that could indicate treatment toxicity.

neutrophils [3] = test: Phase I clinical trial of doxorubicin + HA (HyDox) in advanced cancer: toxicity, neutrophil counts; format: in vivo, patients; conditions: HA 500 mg/m^2 with Dox 30-60 mg/m^2, three week cycle
From the text: The eligibility criteria, for inclusion in this study, were as follows: Patients must have advanced or metastatic cancer, histologically or cytologically confirmed. Patients were not to have had previous chemotherapy or were to have had no more than one prior chemotherapy regime and were not to have had prior anthracyclines. Patients were to be aged between 18 and 75 years with ambulatory performance status and adequate bone marrow, liver and renal function.
The treatment plan provided that, in the first chemotherapy cycle, patients be randomized to receive Dox alone or Dox plus HA. The converse applied in the second cycle. In the subsequent four cycles, patients received Dox plus HA. This allowed each patient to act as his/her own control in the toxicity analysis in the first two cycles, reducing the possibility of inter-patient variability affecting result interpretation.
Injectable sodium chloride was obtained from Baxter Healthcare, Sydney, Australia, as supplied as a 500 ml infusion bag.
Therefore, the initial dose level was 30 mg/m^2, the next 45 mg/m^2 and the next 60 mg/m^2.

neutrophils [4] = conditions: human, in vivo
Description: The 5-FU±HA was given by intravenous administration over one hour on a four week cycle. The initial dose of 5-FU in this study was 450 mg/m^2 daily for three days and the dose of HA 500 mg/m^2 with each administration of 5-FU. Dose escalation occurred in two steps to reach the standard dose of 450 mg/m^2 for five consecutive days with each cycle. Therefore, the initial dose level was 450 mg/r^2 daily for three days, the next 450 mg/m^2 for four days and the final 450 mg/m^2 daily for five days.

[5] = In vivo cytotoxicity (III), CMF±HA: effect of treatment on organ mass; design: species or system Athymic CBA/WEHI nude female mice; conditions: mouse
From the text: as §1
The mass of each organ was calculated as a percentage of the overall net bodyweight, and compared to the organ masses of the saline only group.

[6] = system: blood cell sub-populations; test: In vivo cytotoxicity (III), CMF±HA: bone marrow suppression (blood cell counts); design: species or system Athymic CBA/WEHI nude female mice
Description: At the experimental end-point, when animals had to be euthanased due to degree of disease progression or when the 6-week treatment regimen was completed, the animals were anesthetized by a 0.1 ml intra-peritoneal injection of Nembutal (60 mg/ml), blood was collected, and the animals killed using cervical dislocation.
Erythrocyte, platelet and white blood cell numbers were estimated by making a 1/50- 1/2000 dilution of blood in mouse tenacity saline and counting on a hemocytometer. A blood smear was made and stained with Giemsa, thereby enabling a relative percentage quantification of neutrophils, lymphocytes, and […]. The total estimation of blood cell sub-populations was compared with published data for mouse blood.

[7] = HA days 1 and 3 (CMF, where given, days 2 and 4)

## hyaluronan [HA]
[1]; [7]
  Survival time mean ± SEM: 42 ± 0 days
[1]; administered days 1 and 2
  Survival time mean ± SEM: 42 ± 0 days
[2]; liver pathology
  Liver: % with areas of focal liver necrosis/inflammation: 25% with
[2]; lung pathology
  Lungs: % with oedema and macrophage infiltrate: 12.5% with
Neutrophils [3]
  Effect on known toxicities of Dox in patients: does not increase any of the known toxicities of Dox
Neutrophils [4]
  Effect on known toxicities of 5-FU in patients: does not increase any of the known toxicities of 5-FU
[5]
  Spleen mass compared to the untreated control: significant enlargement of the spleen
[6]; [7]
  Erthrocytes (Mean ± SD): 8.78 ± 0.25 × 10^6/ul
  Lymphocytes/Monocytes (Mean ± SD): 47 ± 2%
  Neutrophils/eosinophils/basophils (Mean ± SD): 53 ± 2%
  Platelets (Mean ± SD): 1356 ± 41 × 10^3/ul
  White Cells (Mean ± SD): 6.15 ± 0.05 × 10^3/ul
[6]; administered days 1 and 2
  Erthrocytes (Mean ± SD): 8.99 ± 0.13 × 10^6/ul
  Lymphocytes/Monocytes (Mean ± SD): 47 ± 1%
  Neutrophils/eosinophils/basophils (Mean ± SD): 53 ± 1%
  Platelets (Mean ± SD): 1374 ± 7 × 10^3/ul
  White Cells (Mean ± SD): 6.15 ± 0.03 × 10^3/ul
